Measured values from ChEMBL document CHEMBL1128469, “Synthesis and biochemical evaluation of adenosylspermidine, a nucleoside-polyamine adduct inhibitor of spermidine synthase” (J Med Chem, 1995).
pIC50: −log10 of the molar value.

Assays:
[1] = biological target: Spermine synthase (Rattus norvegicus); test: Inhibition of Spermidine aminopropyltransferase (SAPT) in rat liver.
Spermidine synthase = biological target: T1, Spermidine synthase (Rattus norvegicus, UniProt Q99MI5); test: Inhibition of Putrescine aminopropyltransferase (PAPT) in rat liver.
T1 sequence (Q99MI5 whole entry): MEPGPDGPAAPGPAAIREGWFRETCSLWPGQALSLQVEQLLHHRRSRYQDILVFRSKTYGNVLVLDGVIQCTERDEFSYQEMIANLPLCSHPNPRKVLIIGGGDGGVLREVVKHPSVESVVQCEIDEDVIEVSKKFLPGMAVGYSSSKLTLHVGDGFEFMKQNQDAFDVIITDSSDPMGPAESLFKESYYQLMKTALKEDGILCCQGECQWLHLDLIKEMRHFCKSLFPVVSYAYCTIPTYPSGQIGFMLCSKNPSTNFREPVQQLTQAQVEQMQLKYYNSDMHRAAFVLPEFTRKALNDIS

[2] = biological target: T2, S-adenosylmethionine decarboxylase proenzyme (Homo sapiens, UniProt P17707); test: Inhibitory activity against S-adenosyl-L-methionine decarboxylase was determined; NI means No inhibition
T2 sequence (P17707 whole entry): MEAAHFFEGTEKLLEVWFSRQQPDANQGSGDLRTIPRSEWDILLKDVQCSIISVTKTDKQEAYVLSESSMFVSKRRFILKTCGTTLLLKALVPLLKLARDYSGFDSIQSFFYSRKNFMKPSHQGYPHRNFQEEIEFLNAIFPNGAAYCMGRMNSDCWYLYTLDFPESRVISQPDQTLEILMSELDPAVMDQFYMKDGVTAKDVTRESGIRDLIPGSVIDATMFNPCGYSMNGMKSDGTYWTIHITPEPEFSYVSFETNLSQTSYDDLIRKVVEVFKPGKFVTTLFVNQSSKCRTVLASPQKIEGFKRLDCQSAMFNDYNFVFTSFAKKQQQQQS

Ornithine decarboxylase = biological target: T3, Ornithine decarboxylase (Rattus norvegicus, UniProt P09057); test: Inhibition of Ornithine decarboxylase in rat liver; Not inhibited
T3 sequence (P09057 whole entry): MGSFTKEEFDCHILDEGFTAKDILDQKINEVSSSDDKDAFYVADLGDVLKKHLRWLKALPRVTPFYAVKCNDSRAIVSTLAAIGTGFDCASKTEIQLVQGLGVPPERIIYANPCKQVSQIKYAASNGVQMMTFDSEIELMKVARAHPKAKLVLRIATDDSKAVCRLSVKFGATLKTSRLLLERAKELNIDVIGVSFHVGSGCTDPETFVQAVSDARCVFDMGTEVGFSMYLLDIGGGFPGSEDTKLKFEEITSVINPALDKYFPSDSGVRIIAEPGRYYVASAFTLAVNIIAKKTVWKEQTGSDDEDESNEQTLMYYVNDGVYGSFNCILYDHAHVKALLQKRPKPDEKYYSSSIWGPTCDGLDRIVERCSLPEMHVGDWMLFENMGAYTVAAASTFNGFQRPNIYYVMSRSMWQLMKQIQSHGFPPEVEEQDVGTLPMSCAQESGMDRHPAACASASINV

| pIC50 [1] | pIC50 (Spermidine synthase) | IC50 [2] | IC50 (Ornithine decarboxylase) | SMILES |
| --- | --- | --- | --- | --- |
| 7.30 | < 5.00 | – | – | NCCCNCCCCCC(CCN)SC[C@H]1OC(n2cnc3c(N)ncnc32)[C@H](O)[C@@H]1O (some centres undefined) |
| – | – | Not Active | No inhibition | NCCCCNC(CCN)CC[C@H]1OC(n2cnc3c(N)ncnc32)[C@H](O)[C@@H]1O (some centres undefined) |
